Literature values in US20230099183A1, “STEVIOL GLYCOSIDE AND GLYCERIN FORMULATIONS FOR FOOD AND BEVERAGES” (Sweegen, Inc., priority 2021, published 2023).

Columns and labels:
[1] = background statement; concentration in food or beverage
[2] = background statement on natural steviol glycosides

Compound	concentration above which bitterness is perceptible [1]	degree of sweetness, times sweeter than sucrose [2]
C=C1C[C@@]23CC[C@H]4[C@@](C)(CCC[C@@]4(C)C(=O)O[C@@H]4O[C@H](CO)[C@@H](O)[C@H](O)[C@H]4O)[C@@H]2CC[C@]1(O[C@@H]1O[C@H](CO)[C@@H](O)[C@H](O[C@@H]2O[C@H](CO)[C@@H](O)[C@H](O)[C@H]2O)[C@H]1O[C@@H]1O[C@H](CO)[C@@H](O)[C@H](O)[C@H]1O)C3 [Reb A]	above 200 ppm	
C=C1C[C@@]23CC[C@H]4[C@@](C)(CCC[C@@]4(C)C(=O)O[C@@H]4O[C@H](CO)[C@@H](O)[C@H](O)[C@H]4O)[C@@H]2CC[C@]1(O[C@@H]1O[C@H](CO)[C@@H](O)[C@H](O)[C@H]1O[C@@H]1O[C@@H](C)[C@H](O)[C@@H](O)[C@H]1O)C3 [Dulcoside A]		about 30 times sweeter than sucrose
C=C1C[C@@]23CC[C@H]4[C@@](C)(CCC[C@@]4(C)C(=O)O[C@@H]4O[C@H](CO)[C@@H](O)[C@H](O)[C@H]4O)[C@@H]2CC[C@]1(O[C@@H]1O[C@H](CO)[C@@H](O)[C@H](O)[C@H]1O[C@@H]1O[C@H](CO)[C@@H](O)[C@H](O)[C@H]1O)C3 [stevioside]		100-150 times sweeter than sucrose
Rebaudioside C		40-60 times sweeter than sucrose
